Experimental findings from paper PMC8654833 (Scientific Reports, 2021) are described below.

What is called inhibition is the share of the control response that was lost under treatment. By IC50 is commonly meant the midpoint of a concentration-inhibition curve. The low end stands for greater potency, the high end for weaker potency. Usually pIC50 stands for the IC50 on a negative log10 scale, so that one unit is a factor of ten. High values mean a small IC50, low ones a large IC50.

One assay addresses T1, 5-HT1B (Rattus norvegicus, UniProt P28564).
T1 construct: Eurofins Cerep (contract assay)
The experiment in a line: Single-concentration radioligand binding screen (Eurofins Cerep), 5-HT1B. Conditions: read-out: %Binding inhibition at 10 µM. On the procedure: (§1) This study included binding assays (87 GPCR targets), measured as % of binding inhibition of a reference radioligand, as well as uptake and enzyme assays (19 targets), the latter measured as % inhibition of control enzyme activity. […] It was performed by radioligand binding competition by Euroscreen (Euroscreen FAST, Belgium). The following nanomolar concentrations were tested in duplicate: 0.001, 0.01, 0.1, 1, 10, 100, 1000, 10,000. Dose–response curves were fitted with the least squares method. IC50 results are shown as pIC50, corresponding to the negative log10 of IC50 in molar.

The next assay addresses T2, 5-HT5A (Homo sapiens, UniProt P47898).
T2 construct: Euroscreen FAST (contract assay)
The experiment in a line: Radioligand binding competition dose-response (Euroscreen), 5-HT5A. As to the method:
as §1

The target in another assay is Ca^2+ channel, ds. The experiment in a line: Radioligand binding competition dose-response (Euroscreen), Ca2+ channel diltiazem site. On the procedure:
as §1

The target of assay [1] is T3, 5-HT1A (Homo sapiens, UniProt P08908).
T3 construct: Euroscreen FAST (contract assay)
T3 sequence (P08908 1-422): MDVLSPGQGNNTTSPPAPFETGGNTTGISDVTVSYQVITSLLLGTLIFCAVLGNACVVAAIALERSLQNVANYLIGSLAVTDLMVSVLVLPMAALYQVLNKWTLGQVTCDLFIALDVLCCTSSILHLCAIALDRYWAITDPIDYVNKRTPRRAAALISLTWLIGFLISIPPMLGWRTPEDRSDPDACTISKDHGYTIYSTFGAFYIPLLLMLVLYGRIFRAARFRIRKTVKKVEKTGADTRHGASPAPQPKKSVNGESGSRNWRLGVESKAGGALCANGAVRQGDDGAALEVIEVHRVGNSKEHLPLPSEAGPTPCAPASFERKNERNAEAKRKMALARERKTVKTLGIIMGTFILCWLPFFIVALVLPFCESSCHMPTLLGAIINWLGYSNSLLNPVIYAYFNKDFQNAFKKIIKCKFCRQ
The experiment in a line: Single-concentration radioligand binding screen (Eurofins Cerep), 5-HT1A. The conditions noted are these: single concentration 10 µM screen, [3H]8-OH-DPAT. As to the method:
as §1

A further assay relates to Ca^2+ channel, vs. Briefly: Single-concentration radioligand binding screen (Eurofins Cerep), Ca2+ channel verapamil site. Conditions: single concentration 10 µM screen, [3H]D888. As to the method: as §1
Assay [2] has as its target T3, 5-HT1A. The experiment in a line: Radioligand binding competition dose-response (Euroscreen), 5-HT1A. As to the method: as §1

Each structure is given as a SMILES string.

T2 sequence (P47898 whole entry, species assumed): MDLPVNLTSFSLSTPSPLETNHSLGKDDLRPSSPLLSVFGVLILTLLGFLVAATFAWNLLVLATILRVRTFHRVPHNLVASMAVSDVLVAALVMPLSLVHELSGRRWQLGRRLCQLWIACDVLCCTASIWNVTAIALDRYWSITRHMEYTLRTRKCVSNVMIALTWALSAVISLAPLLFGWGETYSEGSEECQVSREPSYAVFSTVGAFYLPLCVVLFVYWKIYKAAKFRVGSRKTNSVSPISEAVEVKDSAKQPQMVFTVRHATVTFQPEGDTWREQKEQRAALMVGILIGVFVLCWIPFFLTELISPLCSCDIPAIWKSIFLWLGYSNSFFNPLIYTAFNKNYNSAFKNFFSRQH
T1 sequence (P28564 whole entry): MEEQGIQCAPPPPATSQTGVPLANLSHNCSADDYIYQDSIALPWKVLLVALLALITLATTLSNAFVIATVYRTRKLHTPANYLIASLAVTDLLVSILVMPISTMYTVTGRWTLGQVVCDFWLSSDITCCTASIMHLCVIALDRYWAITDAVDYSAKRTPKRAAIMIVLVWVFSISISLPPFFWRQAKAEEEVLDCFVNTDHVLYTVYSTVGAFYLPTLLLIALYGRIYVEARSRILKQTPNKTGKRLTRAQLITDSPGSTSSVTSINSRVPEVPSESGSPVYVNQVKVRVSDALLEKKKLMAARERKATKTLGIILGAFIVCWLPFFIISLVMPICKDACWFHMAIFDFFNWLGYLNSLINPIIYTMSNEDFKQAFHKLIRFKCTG

In the case of `CC(N)Cc1c[nH]c2ccc(OCc3cccs3)cc12` (stereo not shown) [BW, 1-[5-(thiophen-2-ylmethoxy)-1H-indol-3-yl]propan-2-amine], the inhibition at 10 µM at 5-HT1B was 92%; at 5-HT5A (dose-response study, maximal concentration 10 µM, [3H]LSD), 84.3%; on 5-HT1A [1], 91.8%; at 5-HT1A [2] (dose-response study, maximal concentration 10 µM, [3H]8-OH-DPAT) it was 95%. Also, the IC50 on 5-HT5A was 1380 nM; on 5-HT1A [2], 589 nM. The compound further had a pIC50 on Ca^2+ channel, ds ([3H]diltiazem competition) of 6.11. In addition, the “%Binding inhibition at 10 µM” value worked out at 35.80% in the assay with Ca^2+ channel, ds (dose-response study, maximal concentration 10 µM, [3H]diltiazem); 75.5% in the assay with Ca^2+ channel, vs; 95.26% on 5-HT1A [2] (dose-response study, maximal concentration 10 µM, [3H]8-OH-DPAT, 10 µM).
